Consider 11 compounds from US8802661B2, “C-28 amides of modified C-3 betulinic acid derivatives as HIV maturation inhibitors” (priority 2010, dated 2014).

Some results are limits rather than exact numbers.

For the assay, the system named is recombinant NL4-3 virus (Renilla luciferase in nef, Gag P373S). Put plainly: HIV Cell Culture Assay (luciferase reporter virus in MT-2 cells). The conditions noted are these: NL43, read-out: EC50 Group. The class given is cell-based. In outline:
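Luciferase signal is the read-out: after 4-5 days of infection in the presence of serially diluted compound, MT-2 cells are lysed with a premix of lysis buffer, luciferase reagent and Stop & Glo substrate, and luminescence is read immediately.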
(In a reporter assay the amount or activity of a reporter protein is the signal.)
What is called EC50 is the concentration that produces a half-maximal response. For the compound `CC1(C)CC[C@]2(C(=O)NCCCN3CCS(=O)(=O)CC3)CC[C@]3(C)C(=CC[C@@H]4[C@@]5(C)CC=C(c6ccc(C(=O)O)cc6)C(C)(C)[C@@H]5CC[C@]43C)[C@@H]2C1` [Example B2, 4-((4aR,6aR,6bS,8aS,12aS,14aR,14bS)-8a-((3-(1,1-dioxido-4-thiomorpholinyl)propyl)carbamoyl)-4,4,6a,6b,11,11,14b-heptamethyl-1,4,4a,5,6,6a,6b,7,8,8a,9,10,11,12,12a,14,14a,14b-octadecahydro-3-picenyl)benzoic acid], the half-maximal effective concentration (EC50) is < 100 nM.
The value for `C=C(C)[C@@H]1CC[C@]2(C(=O)N(C)Cc3ccccc3)CC[C@]3(C)[C@H](CC[C@@H]4[C@@]5(C)CC=C(c6ccc(C(=O)O)cc6)C(C)(C)[C@@H]5CC[C@]43C)[C@@H]12` [Example 18, 4-((1R,3aS,5aR,5bR,7aR,11aS,11bR,13aR,13bR)-3a-(benzyl(methyl)carbamoyl)-5a,5b,8,8,11a-pentamethyl-1-(prop-1-en-2-yl)-2,3,3a,4,5,5a,5b,6,7,7a,8,11,11a,11b,12,13,13a,13b-octadecahydro-1H-cyclopenta[a]chrysen-9-yl)benzoic acid] was > 100 nM; that for `C=C(C)[C@@H]1CC[C@]2(C(=O)NCCN(C)CC(=O)O)CC[C@]3(C)[C@H](CC[C@@H]4[C@@]5(C)CC=C(c6ccc(C(=O)O)cc6)C(C)(C)[C@@H]5CC[C@]43C)[C@@H]12` [Example 80, 4-((1R,3aS,5aR,5bR,7aR,11aS,11bR,13aR,13bR)-3a-(2-((carboxymethyl)(methyl)amino)ethylcarbamoyl)-5a,5b,8,8,11a-pentamethyl-1-(prop-1-en-2-yl)-2,3,3a,4,5,5a,5b,6,7,7a,8,11,11a,11b,12,13, 13a,13b-octadecahydro-1H-cyclopenta[a]chrysen-9-yl)benzoic acid] was < 100 nM; that for `C=C(C)[C@@H]1CC[C@]2(C(=O)NCCCN3CCS(=O)(=O)CC3)CC[C@]3(C)[C@H](CC[C@@H]4[C@@]5(C)CC=C(c6ccc(C(=O)O)cc6F)C(C)(C)[C@@H]5CC[C@]43C)[C@@H]12` [Example 109, 4-((1R,3aS,5aR,5bR,7aR,11aS,11bR,13aR,13bR)-3a-((3-(1,1-dioxido-4-thiomorpholinyl)propyl)carbamoyl)-1-isopropenyl-5a,5b,8,8,11a-pentamethyl-2,3,3a,4,5,5a,5b,6,7,7a,8,11,11a,11b,12,13,13a,13b-octadecahydro-1H-cyclopenta[a]chrysen-9-yl)-3-fluorobenzoic acid] was < 100 nM.
Regarding `C=C(C)[C@@H]1CC[C@]2(C(=O)N(C)CCO)CC[C@]3(C)[C@H](CC[C@@H]4[C@@]5(C)CC=C(c6ccc(C(=O)O)cc6)C(C)(C)[C@@H]5CC[C@]43C)[C@@H]12` [Example 23, 4-((1R,3aS,5aR,5bR,7aR,11aS,11bR,13aR,13bR)-3a-((2-hydroxyethyl)(methyl)carbamoyl)-5a,5b,8,8,11a-pentamethyl-1-(prop-1-en-2-yl)-2,3,3a,4,5,5a,5b,6,7,7a,8,11,11a,11b,12,13,13a,13b-octadecahydro-1H-cyclopenta[a]chrysen-9-yl)benzoic acid], the EC50 was < 100 nM.
The value for `C=C(C)[C@@H]1CC[C@]2(C(=O)NCc3cccnc3)CC[C@]3(C)[C@H](CC[C@@H]4[C@@]5(C)CC=C(c6ccc(C(=O)O)cc6)C(C)(C)[C@@H]5CC[C@]43C)[C@@H]12` [Example 29, 4-((1R,3aS,5aR,5bR,7aR,11aS,11bR,13aR,13bR)-5a,5b,8,8,11a-pentamethyl-1-(prop-1-en-2-yl)-3a-(pyridin-3-ylmethylcarbamoyl)-2,3,3a,4,5,5a,5b,6,7,7a,8,11,11a,11b,12,13,13a,13b-octadecahydro-1H-cyclopenta[a]chrysen-9-yl)benzoic acid] was < 100 nM; that for `CC(C)[C@@H]1CC[C@]2(C(=O)NCCc3ccccn3)CC[C@]3(C)[C@H](CC[C@@H]4[C@@]5(C)CC[C@H](c6ccc(C(=O)O)cc6)C(C)(C)[C@@H]5CC[C@]43C)[C@@H]12` [Example 54, 4-((1S,3aS,5aR,5bR,7aS,9S,11aS,11bR,13aR,13bR)-1-isopropyl-5a,5b,8,8,11a-pentamethyl-3a-(2-(pyridin-2-yl)ethylcarbamoyl)icosahydro-1H-cyclopenta[a]chrysen-9-yl)benzoic acid] was < 100 nM.
On to `C=C(C)[C@@H]1CC[C@]2(C(=O)NCC(O)C(=O)O)CC[C@]3(C)[C@H](CC[C@@H]4[C@@]5(C)CC=C(c6ccc(C(=O)O)cc6)C(C)(C)[C@@H]5CC[C@]43C)[C@@H]12` (stereo partly drawn) [Example 79, 4-((1R,3aS,5aR,5bR,7aR,11aS,11bR,13aR,13bR)-3a-(2-carboxy-2-hydroxyethylcarbamoyl)-5a,5b,8,8,11a-pentamethyl-1-(prop-1-en-2-yl)-2,3,3a,4,5,5a,5b,6,7,7a,8,11,11a,11b,12,13,13a,13b-octadecahydro-1H-cyclopenta[a]chrysen-9-yl)benzoic acid], for which the EC50 was < 100 nM.
With `C=C(C)[C@@H]1CC[C@]2(C(=O)NCCN(CC(=O)O)C(C)C)CC[C@]3(C)[C@H](CC[C@@H]4[C@@]5(C)CC=C(c6ccc(C(=O)O)cc6)C(C)(C)[C@@H]5CC[C@]43C)[C@@H]12` [Example 95, 4-((1R,3aS,5aR,5bR,7aR,11aS,11bR,13aR,13bR)-3a-(2-((carboxymethyl)(isopropyl)amino)ethylcarbamoyl)-5a,5b,8,8,11a-pentamethyl-1-(prop-1-en-2-yl)-2,3,3a,4,5,5a,5b,6,7,7a,8,11,11a,11b,12,13,13a,13b-octadecahydro-1H-cyclopenta[a]chrysen-9-yl)benzoic acid], the concentration giving a half-maximal response (EC50) was < 100 nM.
For the compound `C=C(C)[C@@H]1CC[C@]2(C(=O)NCc3ccc(OC)cc3)CC[C@]3(C)[C@H](CC[C@@H]4[C@@]5(C)CC=C(c6ccc(C(=O)O)cc6)C(C)(C)[C@@H]5CC[C@]43C)[C@@H]12` [Example 15, 4-((1R,3aS,5aR,5bR,7aR,11aS,11bR,13aR,13bR)-3a-(4-methoxybenzylcarbamoyl)-5a,5b,8,8,11a-pentamethyl-1-(prop-1-en-2-yl)-2,3,3a,4,5,5a,5b,6,7,7a,8,11,11a,11b,12,13,13a,13b-octadecahydro-1H-cyclopenta[a]chrysen-9-yl)benzoic acid], the EC50 is < 100 nM.
Regarding `C=C(C)[C@@H]1CC[C@]2(C(=O)NCCN3CCS(=O)(=O)CC3)CC[C@]3(C)[C@H](CC[C@@H]4[C@@]5(C)CC=C(c6ccc(C(=O)O)c(F)c6)C(C)(C)[C@@H]5CC[C@]43C)[C@@H]12` [Example 116, 4-((1R,3aS,5aR,5bR,7aR,11aS,11bR,13aR,13bR)-3a-((2-(1,1-dioxido-4-thiomorpholinyl)ethyl)carbamoyl)-1-isopropenyl-5a,5b,8,8,11a-pentamethyl-2,3,3a,4,5,5a,5b,6,7,7a,8,11,11a,11b,12,13,13a,13b-octadecahydro-1H-cyclopenta[a]chrysen-9-yl)-2-fluorobenzoic acid], the EC50 is < 100 nM.
